In ChEMBL document CHEMBL1201862, “PubChem BioAssay data set” (2004):
Calls of active or inactive are those of the source.

What was measured:
[1] = molecular target: T1, Mannose-6-phosphate isomerase (Homo sapiens, UniProt P34949); test: MPI enzyme activity inhibition – biochemical, fluorescence intensity, coupled assay, primary screen (AID 1209)
T1 sequence (P34949 whole entry): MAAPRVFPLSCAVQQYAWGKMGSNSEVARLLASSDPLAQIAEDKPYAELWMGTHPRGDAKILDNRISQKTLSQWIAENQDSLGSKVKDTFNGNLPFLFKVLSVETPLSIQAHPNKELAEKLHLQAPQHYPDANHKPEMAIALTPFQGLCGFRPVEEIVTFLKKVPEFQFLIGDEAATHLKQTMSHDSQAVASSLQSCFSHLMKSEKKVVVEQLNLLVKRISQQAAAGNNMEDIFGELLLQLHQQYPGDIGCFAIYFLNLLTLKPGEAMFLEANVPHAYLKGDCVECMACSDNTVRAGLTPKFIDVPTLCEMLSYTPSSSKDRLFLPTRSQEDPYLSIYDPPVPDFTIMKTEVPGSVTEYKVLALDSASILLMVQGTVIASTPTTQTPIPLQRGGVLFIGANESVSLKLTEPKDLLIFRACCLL

[2] = molecular target: T2, Luciferin 4-monooxygenase (Photinus pyralis, UniProt P08659); test: Counter Screen for Luciferase-based Assay Positives. [Related pubchem assays: 620, 618, 411 ]
Protein skinhead-1 = molecular target: T3, Protein skinhead-1 (Caenorhabditis elegans, UniProt P34707); format: functional
T3 sequence (P34707 whole entry): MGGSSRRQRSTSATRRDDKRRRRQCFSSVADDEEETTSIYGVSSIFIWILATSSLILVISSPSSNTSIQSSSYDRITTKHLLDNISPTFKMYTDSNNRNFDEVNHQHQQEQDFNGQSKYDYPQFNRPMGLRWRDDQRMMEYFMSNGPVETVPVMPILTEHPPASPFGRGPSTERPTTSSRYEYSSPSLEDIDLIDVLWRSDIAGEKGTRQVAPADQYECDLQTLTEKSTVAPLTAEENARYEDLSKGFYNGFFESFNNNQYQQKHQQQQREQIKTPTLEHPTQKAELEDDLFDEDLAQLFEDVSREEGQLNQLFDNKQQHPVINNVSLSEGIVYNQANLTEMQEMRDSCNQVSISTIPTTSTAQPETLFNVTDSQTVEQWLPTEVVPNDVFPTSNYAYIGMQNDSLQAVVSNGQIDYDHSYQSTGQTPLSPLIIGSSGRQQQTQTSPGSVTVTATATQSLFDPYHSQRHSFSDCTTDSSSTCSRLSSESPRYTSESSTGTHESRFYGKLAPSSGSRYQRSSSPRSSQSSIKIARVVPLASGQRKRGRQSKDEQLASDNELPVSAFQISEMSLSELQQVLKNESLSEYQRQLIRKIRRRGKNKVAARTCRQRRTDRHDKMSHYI

HT-1080 = test: HT1080 cell viability loss – fluorescence readout (AID 620); format: functional, cell-based; conditions: Homo sapiens
[3] = molecular target: T2, Luciferin 4-monooxygenase; test: inhibition of purified Photinus pyralis luciferase – biochemical, luminescence, dose response (AID 1891)
[4] = Luminescence Cell-Based Dose Confirmation HTS to Identify Inhibitors of Platelet Dense Granule Release. [Related pubchem assays: 1663 (Primary HTS), 1678 (Summary of Project)]; format: functional
H4 = test: Luminescence Cell-Based Dose Response HTS to Identify Activators of 5'UTR Stem-Loop Driven Prion Protein mRNA Translation in H4 Neuroglioblastoma Cells. [Related pubchem assays: 1829 (Project Summary), 1814 (Primary HTS)]; format: functional; conditions: Homo sapiens
[5] = Luminescence Cell-Based Dose Confirmation to Identify Activators of 5'UTR Stem-Loop Driven Alpha-Synuclein mRNA Translation in H4 Neuroglioblastoma Cells. [Related pubchem assays: 1829 (Project Summary), 1814 (Primary HTS)]; format: functional
[6] = Luminescence Cell-Based Dose Response to Identify Activators of Luciferase Translation or Activity in H4-C Neuroglioblastoma Cells. [Related pubchem assays: 1829 (Project Summary), 1814 (Primary HTS)]; format: functional
[7] = Luminescence Cell-Based Dose Response to Identify Activators of 5'UTR Stem-Loop Driven Prion Protein mRNA Translation in H4-C Neuroglioblastoma Cells. [Related pubchem assays: 1829 (Project Summary), 1814 (Primary HTS)]; format: functional
[8] = molecular target: Melanin-concentrating hormone receptor 1 (Homo sapiens, UniProt Q99705); test: Fluorescence-based counterscreen for antagonists of the G-protein coupled receptor 7 (GPR7): cell-based high throughput dose response assay to identify antagonists of the melanin-concentrating hormone receptor 1 (MCHR1).; format: functional
[9] = molecular target: Epstein-Barr nuclear antigen 1 (Epstein-Barr virus (strain B95-8) (HHV-4) (Human herpesvirus 4), UniProt P03211); test: inhibition of EBV nuclear antigen 1 DNA binding – biochemical, fluorescence polarization, 1536-well, dose response (AID 2381); design: species or system human gammaherpesvirus 4;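 also: fluorescence polarization of a Cy5 DNA probe bound by EBNA-1 protein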
[10] = molecular target: Lytic switch protein BZLF1 (Epstein-Barr virus (strain B95-8) (HHV-4) (Human herpesvirus 4), UniProt P03206); test: inhibition of BZLF1 ZTA DNA binding – biochemical, fluorescence polarization, Epstein-Barr virus, 1536-well, counter-screen for EBNA-1 inhibitor project, dose response (AID 2377); design: species or system human gammaherpesvirus 4;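 also: fluorescence polarization of Cy5-labelled ZRE DNA probe bound by purified Zta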
[11] = molecular target: Aryl hydrocarbon receptor (Homo sapiens, UniProt P35869); test: Luminescence-based cell-based high throughput dose response assay for activators of the Aryl Hydrocarbon Receptor (AHR). [Related pubchem assays: 2796 (Primary screen (AHR activators in singlicate)), 2845 (Confirmation screen (AHR activators in triplicate)), 434939 (Counterscreen (PXR activators in triplicate)), 2804 (Summary (AHR activators))]; format: ADME
Estrogen receptor beta = Estrogen receptor beta (Homo sapiens, UniProt Q92731); test: blockers of SRC-3 recruitment to ERβ – biochemical, ELISA, streptavidin-HRP readout, orthogonal assay, confirmation (AID 1060)
Aspartyl aminopeptidase = Aspartyl aminopeptidase (Plasmodium falciparum 3D7, UniProt Q8I2J3); test: Counterscreen for inhibitors of M1 and M17 aminopeptidases: QFRET-based biochemical high throughput dose response assay for inhibitors of the Plasmodium falciparum M18 Aspartyl Aminopeptidase (PFM18AAP). [Related PubChem assays: 1619 (Screening assay (M17LAP inhibitors).), 1445 (Screening assay (M1AAP inhibitors).)]
Leucine aminopeptidase = molecular target: T4, Leucine aminopeptidase (Plasmodium falciparum 3D7, UniProt Q8IL11); test: P. falciparum M17LAP inhibitors, primary screen, biochemical, fluorogenic H-Leu-NHMec substrate, 1536-well (AID 1619); format: functional
T4 sequence (Q8IL11 whole entry): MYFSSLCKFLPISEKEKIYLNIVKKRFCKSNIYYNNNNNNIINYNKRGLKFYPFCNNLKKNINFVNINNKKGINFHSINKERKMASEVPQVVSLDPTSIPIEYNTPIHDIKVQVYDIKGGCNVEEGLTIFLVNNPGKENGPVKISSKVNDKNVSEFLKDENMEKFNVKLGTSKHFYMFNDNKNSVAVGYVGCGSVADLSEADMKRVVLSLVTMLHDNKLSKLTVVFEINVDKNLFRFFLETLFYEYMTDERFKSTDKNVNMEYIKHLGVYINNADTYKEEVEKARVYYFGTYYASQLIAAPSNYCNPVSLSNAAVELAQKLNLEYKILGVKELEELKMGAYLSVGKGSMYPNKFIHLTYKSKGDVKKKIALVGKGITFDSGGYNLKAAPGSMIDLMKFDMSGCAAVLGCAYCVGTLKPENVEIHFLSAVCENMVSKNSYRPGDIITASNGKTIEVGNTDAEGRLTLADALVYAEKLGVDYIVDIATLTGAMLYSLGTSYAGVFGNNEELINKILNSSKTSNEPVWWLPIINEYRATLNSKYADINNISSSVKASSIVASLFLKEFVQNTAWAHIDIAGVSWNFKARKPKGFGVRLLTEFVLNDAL

Procathepsin L = Procathepsin L (Homo sapiens, UniProt P07711); test: CTSL1 protease inhibition – biochemical, QFRET, 1536-well, counter-screen for M1/M17 aminopeptidase inhibitor project, dose response (AID 2214)
[12] = molecular target: E3 ubiquitin-protein ligase Mdm2 (Homo sapiens, UniProt Q00987); test: MDM2-luc reporter signal enhancers, multi-concentration potency testing, MDM2 ubiquitin-protein ligase inhibitor program, whole-cell format, luminescence detection, 384-well microplate (AID 1394); format: functional;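 also: MDM2 E3 inhibitors raise luminescence so EC50 is for signal enhancement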
cells [13] = format: functional
[14] = A High Throughput Confirmatory Assay used to Identify Novel Compounds that Inhibit Mycobacterium Tuberculosis in the absence of Glycerol.; format: functional
[15] = molecular target: Peroxisome proliferator-activated receptor gamma/Nuclear receptor corepressor 2 (Homo sapiens, UniProt P37231+Q9Y618); format: functional
[16] = molecular target: Photoreceptor-specific nuclear receptor (Homo sapiens, UniProt Q9Y5X4); format: functional;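 also: potency for compounds that break the NR2E3 corepressor complex and count as activators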
cells [17] = test: cells
Major prion protein = Major prion protein (Homo sapiens, UniProt P04156); format: functional, cell-based
[18] = Luminescence Cell-Based Dose Confirmation HTS to Identify Activators of 5'UTR Stem-Loop Driven Alpha-Synuclein mRNA Translation in H4 Neuroglioblastoma Cells. [Related pubchem assays: 1829 (Project Summary), 1814 (Primary HTS)]; format: functional
[19] = Luminescence Cell-Based Dose Response HTS to Identify Activators of Luciferase Translation or Activity in H4 […] Cells. [Related pubchem assays: 1829 (Project Summary), 1814 (Primary HTS)]; format: functional
[20] = molecular target: Ubiquitin carboxyl-terminal hydrolase BAP1 (Homo sapiens, UniProt Q92560); test: inhibition of BAP1 ubiquitin hydrolase activity – biochemical, dose response (AID 714); format: functional
[21] = A cytotoxicity screen of small molecule inhibitors of the PhoP region in Salmonella typhi identified in the primary screen. [Related pubchem assays: 1850, 1864, 1985 ]; format: functional
[22] = luciferase reporter signal suppression in cells – H4 neuroglioma cells, luminescence, dose response (AID 1990); format: functional, cell-based
[23] = alpha-synuclein stem-loop luciferase translation blockers – H4 neuroglioma cells, luminescence, confirmation (AID 1988); format: functional, cell-based
[24] = microbe, parasite or virus in culture; format: functional; conditions: Mycobacterium tuberculosis
Staphylococcus aureus = test: Inhibitors of Bacterial Quorum Sensing Structure Activity Relationship (SAR) Analysis: Dose Response Assay. [Related pubchem assays: 700, 527 ]; format: functional, organism-based

CCCCCC1(C)NC(=S)N(c2ccccc2)N1 (centres undefined)
IC50 [1]: > 50 µM (not active)

CN(C)c1ccc(N/C=C/C(=O)c2ccco2)cc1
EC50 [2]: < 0.2 µM (active) | IC50 (Protein skinhead-1): 76.5 µM (inactive) | EC50 (HT-1080): > 50 µM (not active) | EC50 [3]: 1.9 µM (active) | EC50 [4]: 0.891 µM (active)

Cc1cc(C(=O)CSc2nc3ccccc3o2)c(C)n1CC1CCCO1 (centres undefined)
EC50 (H4): < 0.1 µM (active) | EC50 [5]: 0.21 µM (active) | EC50 [6]: 0.231 µM (active) | EC50 [7]: 0.323 µM (active)

Cc1cc(=O)oc2cc(OC(=O)c3ccccc3)ccc12
IC50 [8]: > 43.8 µM (not active)

COc1ccccc1CNC(=O)c1ccc2nc3[nH]c4ccccc4c3nc2c1
IC50 [9]: 14.4 µM (not active) | IC50 [10]: > 111 µM (not active)

COCC(=O)N1CCc2ccc(NC(=O)c3ccc(C(F)(F)F)cc3)cc2C1
EC50 [11]: > 1.13 µM (active)

Fc1ccc(CSc2ncnc3c2oc2ccccc23)cc1
IC50 (Estrogen receptor beta): > 50 µM (not active)

COc1ccc(Cl)cc1C(=O)Nc1ccc(N(C)C(C)=O)cc1
EC50 [11]: 2.81 µM (active)

CC(C)c1ccc(NC(=O)C2CCCCC2C(=O)O)cc1 (centres undefined)
IC50 (Aspartyl aminopeptidase): > 73.5 µM (not active) | IC50 (Leucine aminopeptidase): 3.51 µM (active) | IC50 (Procathepsin L): > 59.6 µM (not active)

Cc1cc(C)c(S(=O)(=O)c2ccccc2)c(OC(=O)c2cc(F)c(F)cc2Cl)n1
EC50 [12]: 186 µM (not active)

CCCCCC1CC(CC(=O)NC(=S)Nc2ccc([N+](=O)[O-])cc2)C(=O)O1 (centres undefined)
IC50 (cells [13]): 20.3 µM (active) | IC50 [14]: > 100 µM (active)

Brc1cc(Br)c2ncnc(N3CCCCC3)c2c1
IC50 [15]: 2.36 µM (active) | IC50 [16]: 1.42 µM (active) | IC50 (cells [17]): > 138 µM (inactive) | IC50 (Major prion protein): 1.38 µM (active)

Cc1oc2cc3c(C(=O)N4CCCCC4)c(C)oc3cc2c1C(=O)N1CCCCC1
EC50 [18]: < 0.1 µM (active) | EC50 [19]: 12.2 µM (active) | EC50 (H4): > 120 µM (not active) | EC50 [5]: 0.598 µM (active) | EC50 [6]: 0.573 µM (active) | EC50 [7]: > 12 µM (not active)

O=C(CCCCCNc1nc(S)nc2ccccc12)NCCc1ccc(Cl)cc1
IC50 [9]: 13.4 µM (not active) | IC50 [10]: > 111 µM (not active)

O=C(Nc1ccc(F)cc1)c1ccccc1S(=O)(=O)c1ccccc1[N+](=O)[O-]
EC50 [12]: 0.53 µM (not active)

O=S(=O)(c1cccc(S(=O)(=O)N2CCC(n3nnc4ccccc43)CC2)c1)N1CCCCC1
IC50 [20]: 18.3 µM (active)

Cc1cc(C)c[n+](CC(=O)c2ccc(NC(=O)c3ccccc3)cc2)c1
EC50 [21]: > 50 µM (active)

COc1ccc(NC(=O)c2c(NC(=O)CNCc3ccco3)sc3c2CCC3)c(OC)c1
IC50 [20]: 35.8 µM (not active)

CCN(CC)S(=O)(=O)c1ccc(/C(O)=C(\C#N)c2nc3ccccc3n2C)cc1
EC50 [22]: > 120 µM (not active) | EC50 [21]: > 50 µM (active) | EC50 [23]: > 120 µM (not active)

O=C1NCC(c2ccccc2)C1C(=O)N/N=C\c1ccc(-c2ccc(Cl)c(Cl)c2)o1 (centres undefined)
IC50 [14]: > 100 µM (active) | CC50 [24]: > 40 µM (active)

Cc1ccc(Cl)c(Nc2ccccc2C(=O)O)c1Cl [MECLOFENAMIC ACID]
IC50 (Staphylococcus aureus): 0.877 µM (active)
